{"source": "patent US10556929B2", "about": "“Cytotoxic T lymphocyte inducing immunogens for prevention treatment and diagnosis of dengue virus infection” (Emergex Vaccines Holdings Limited, priority 2011, dated 2020)", "assay_type_in_all_cases": "cell-based, human", "key": {"[1]": {"system": "T2 cells loaded with the corresponding synthetic peptide", "assay": "IFN-γ ELISpot, CTL vs peptide-pulsed T2 cells", "conditions": "CTL from HLA-A2+ healthy donor PBMC generated with synthetic peptide, overnight ELISpot, FIG. 3A-D", "protocol": "(§1) Heparinized blood from healthy HLA-A2+ donors was purchased from Research Blood Components, LLC (Brighton, Mass.). Peripheral blood mononuclear cells (PBMC) were purified using differential centrifugation following standard methods. PBMC were used to generate peptide specific CTL as described previously (James S. Testa, et al. J Infect Dis 205(4): 647-655. (2012)).\n(§2) Antigen stimulated interferon-γ (IFN-γ) release as a measure of CTL activation was assayed using an ELISPOT assay kit (BD-Pharmingen, San Jose, Calif.) according to the manufacturer's instructions. Results are presented as the number of interferon-γ producing cells per 1E6 PBMCs. Each assay was performed with PBMC from at least three different healthy HLA-A2+ donors. Error bars represent SEM of experimental replicates.\nIn order to characterize the functionality of the identified DV epitopes, we generated cytotoxic T cells from HLA-A2+ healthy donors using synthetic peptides corresponding to the identified epitopes. The cultures were tested in overnight ELISpot assays to measure IFNγ release from activated CTLs. […] Next, to confirm CTL activation against DV-infected targets, JY and HepG2 cells were infected with both DV2 and DV3 virus and used as targets in CTL ELISpot assays. […] In addition, K562 cells, a known NK cell target, were used as targets to measure non-specific IFNγ secretion."}, "[2]": {"system": "JY cells infected with DV1-4 Thai isolates", "assay": "IFN-γ ELISpot, CTL vs JY cells infected with DV1-4 Thai isolates", "conditions": "JY infected with DV1-4 Thai isolates, FIG. 4G-J", "protocol": "(§3) Dengue virus serotype 2 (DV2) (strain-16681), as well as DV type 3 (DV3) (strain-16562), were propagated in Vero cells and collected at 4 days post infection (dpi). Titer was determined using a plaque assay in Vero cells. Thai isolates of all four DV serotypes were propagated. All infections were carried out at five MOI for lhr, after which, virus was removed and cells were incubated for additional 48-72 hrs.\nas §1, §2\n(§4) We tested CTLs generated against the 4 epitopes using targets infected with all four DV serotypes. We infected HepG2 cells (FIG. 4A) or JY cells (FIG. 4B) with DV1-4 Thai isolates and verified protein expression. […] In addition to HepG2 cells, we also tested professional APC JY cells, as targets."}, "[3]": {"system": "HepG2 cells infected with DV1-4 Thai isolates", "assay": "IFN-γ ELISpot, CTL vs HepG2 cells infected with DV1-4 Thai isolates", "conditions": "HepG2 infected with DV1-4 Thai isolates, FIG. 4C-F", "protocol": "as §3, §1, §2, §4"}, "[4]": {"system": "JY and HepG2 cells infected with DV2 and DV3 virus", "assay": "IFN-γ ELISpot, CTL vs DV2/DV3-infected JY and HepG2 cells", "conditions": "FIG. 3E-F", "protocol": "as §3, §1, §2\nIn order to characterize the functionality of the identified DV epitopes, we generated cytotoxic T cells from HLA-A2+ healthy donors using synthetic peptides corresponding to the identified epitopes. […]"}}}
{"sequence": "NIQTAINQV (listed as Homo sapiens) [P4-NIQ]", "values": [{"measurement": "recognition of peptide-loaded targets by peptide-specific CTL (IFNγ release)", "setting": "[1]", "result": "recognize T2 cells loaded with the corresponding synthetic peptide"}, {"measurement": "activation of peptide-specific CTL by infected JY targets", "setting": "[2]", "result": "most infected targets activate peptide-specific CTL"}, {"measurement": "activation of epitope-specific CTL against infected HepG2 targets", "setting": "[3]", "result": "activated against all four serotypes, although not to the same degree"}]}
{"sequence": "KLAEAIFKL (listed as Homo sapiens) [P1-KLA]", "values": [{"measurement": "recognition of peptide-loaded targets by peptide-specific CTL (IFNγ release)", "setting": "[1]", "result": "recognize T2 cells loaded with the corresponding synthetic peptide"}, {"measurement": "DV serotypes of infected targets recognized by peptide-specific CTL", "setting": "[2]", "result": "recognized only DV2-infected targets"}, {"measurement": "activation of peptide-specific CTL by infected JY targets", "setting": "[2]", "result": "most infected targets activate peptide-specific CTL"}, {"measurement": "activation of epitope-specific CTL against infected HepG2 targets", "setting": "[3]", "result": "activated against all four serotypes, although not to the same degree"}]}
{"sequence": "VTLLCLIPTV (listed as Homo sapiens) [P2-VTL]", "values": [{"measurement": "CTL activation (IFNγ secretion) against DV-infected targets", "setting": "[4]", "result": "all DV-infected cells activated CTL to secrete IFNγ"}, {"measurement": "recognition of peptide-loaded targets by peptide-specific CTL (IFNγ release)", "setting": "[1]", "result": "recognize T2 cells loaded with the corresponding synthetic peptide"}, {"measurement": "DV serotypes of infected targets recognized by peptide-specific CTL", "setting": "[2]", "result": "recognized only DV2-infected targets"}, {"measurement": "activation of peptide-specific CTL by infected JY targets", "setting": "[2]", "result": "most infected targets activate peptide-specific CTL"}, {"measurement": "activation of epitope-specific CTL against infected HepG2 targets", "setting": "[3]", "result": "activated against all four serotypes, although not to the same degree"}]}
{"sequence": "TITEEIAVQ (listed as Homo sapiens) [P3-TIT]", "values": [{"measurement": "CTL activation (IFNγ secretion) against DV-infected targets", "setting": "[4]", "result": "all DV-infected cells activated CTL to secrete IFNγ"}, {"measurement": "recognition of peptide-loaded targets by peptide-specific CTL (IFNγ release)", "setting": "[1]", "result": "recognize T2 cells loaded with the corresponding synthetic peptide"}, {"measurement": "activation of peptide-specific CTL by infected JY targets", "setting": "[2]", "result": "most infected targets activate peptide-specific CTL"}, {"measurement": "activation of epitope-specific CTL against infected HepG2 targets", "setting": "[3]", "result": "activated against all four serotypes, although not to the same degree"}]}
